Measurements published in patent US7998976B2, “Certain chemical entities, compositions and methods” (Cytokinetics, Inc., priority 2008, dated 2011).

Tested on: skeletal sarcomere (skeletal myosin with actin, tropomyosin, and troponin complex)
Assay: Screen of ATP hydrolysis rate of myosin with calcium-regulated actin filament (actin/tropomyosin/troponin), PK/LDH/NADH coupled enzyme system
Type: biochemical
Details: screen conducted at pCa=6.5; unit not given
Method: For example, test compounds can be assayed in a highly parallel fashion by using multiwell plates by placing the compounds either individually in wells or testing them in mixtures. Assay components including the target protein complex, coupling enzymes and substrates, and ATP can then be added to the wells and the absorbance or fluorescence of each well of the plate can be measured with a plate reader.
In some embodiments, the method uses a 384 well plate format and a 25 μL reaction volume. A pyruvate kinase/lactate dehydrogenase coupled enzyme system (Huang T G and Hackney D D. (1994) J Biol Chem 269(23):16493-501) can be used to measure the rate of ATP hydrolysis in each Well. As will be appreciated by those in the art, the assay components are added in buffers and reagents. The incubation periods can be optimized to give adequate detection signals over the background. The assay can be done in real time giving the kinetics of ATP hydrolysis which increases the signal to noise ratio of the assay.
Actin was purified by first preparing an ether powder of cardiac muscle (Zot H G and Potter J D. (1981) Preparative Biochemistry 11:381-395) as described below. Subsequently, actin was cycled between the filamentous and soluble state through rounds of centrifugation and dialysis (Spudich J A and Watt S. (1971) J. Biol. Chem. 246:4866-4871). It was stored in the filamentous state at 4° C.
Tropomyosin was extracted from the ether powder and separated from the other proteins based on pH dependent precipitations followed by successive ammonium sulfate cuts at 53% and 65% (Smillie L B. (1981) Methods Enzymol 85 Pt B:234-41). The troponins were isolated as an intact complex of TnC, TnT, and TnI. Ether powder is extracted in a high salt buffer. Successive ammonium sulfate cuts of 30% and 45% were done; the precipitate was solubilized by dialysis into a low salt buffer and then further purified on a DEAE Toyopearl column with a 25-350 mM KCl gradient.
Just prior to screening, the actin, tropomyosin, and troponin complex are mixed together in the desired ratio (e.g., 7:1:1) to achieve maximal calcium regulation of the actin filament. The screen is conducted at a pCa=6.5. This calcium concentration is in the physiological range during muscle contraction.
To measure the generation of ADP during the reaction, a pyruvate kinase/lactate dehydrogenase/NADH coupled enzyme system (PK/LDH) is added to the actin. The myosin is kept separately. The plates are read in real time so that kinetic curves are obtained. These compounds are in DMSO and were already spotted onto the bottoms of 384 well plates at 10 to 40 μg/ml final concentration.
• 1. Obtain ˜1000 g skeletal muscle, such as rabbit skeletal muscle. • 2. Grind twice; extract with 2 L solution A for 15 min while stirring; add 4 L cold H2O, filter through gauze; dilute with cold H2O to ionic strength of 0.04, (about 10-fold); let settle for 3 h; collect precipitate at 7,000 rpm in GSA rotor for 15 min. • 3. Disperse pellet in 220 ml solution B; dialyze overnight against 6 L solution C; slowly add ˜400 ml equal volume cold distilled H2O; stir for 30 min; centrifuge at 10,000 rpm for 10 min in GSA rotor. • 4. Centrifuge supernatant at 19,000 rpm for 1 h. • 5. Dilute supernatant to ionic strength of 0.04 (˜8-fold); let myosin settle overnight; collect about 5-6 L fluffy myosin precipitate by centrifuging at 10,000 rpm for 10 min in GSA rotor. • 6. Resuspend pellet in minimal volume of solution G; dialyze overnight against 2 L solution D; centrifuge at 19,000 rpm for 2 h, in cellulose nitrate tubes; puncture tubes and separate myosin from fat and insoluble pellet. • 7. Dilute supernatant to 5-10 mg/ml and dialyze against solution E extensively, load onto DEAE-sephadex column. • 8. […]

Compound	AC1.4 Median
3-(ethylpropyl)-5-methylimidazo[5,4-b]pyridin-2-ol	43.299
CCC(CC)n1c(O)nc2ccc(Cl)nc21 [5-chloro-3-(ethylpropyl)imidazo[5,4-b]pyridin-2-ol]	21.134
CCC(CC)n1c(O)nc2ccc(Br)nc21 [5-bromo-3-(ethylpropyl)imidazo[5,4-b]pyridin-2-ol]	8.050
3-(ethylpropyl)-5-vinylimidazo[5,4-b]pyridin-2-ol	3.836
5-(dimethylamino)-3-(ethylpropyl)imidazo[5,4-b]pyridin-2-ol	2.611
3-(ethylpropyl)-5-ethynylimidazo[5,4-b]pyridin-2-ol	2.366
C/C=C\c1ccc2nc(O)n(C(CC)CC)c2n1 [5-((1Z)prop-1-enyl)-3-(ethylpropyl)imidazo[5,4-b]pyridin-2-ol]	0.840
